Measured values as given in US20110207811A1, “USE OF CELIVARONE FOR REDUCING OCCURRENCES OF CARDIOVASCULAR HOSPITALIZATION” (SANOFI-AVENTIS, priority 2010, published 2011).

System: ICD patients with a LVEF of 40% or less
Test: clinical study ALPHEE: prevention of cardiovascular hospitalization
Format: in vivo
Conditions: clinical trial using amiodarone as calibrator; oral, with a meal
From the text: The primary objective of the study is to assess the efficacy of celivarone for the prevention of ICD interventions or death. The study also aims at assessing the usefulness of celivarone for reducing occurrences of cardiovascular hospitalization in treated patients.
This is a dose-finding multicenter, multinational, randomized, double blind, placebo controlled, parallel arm study including a positive control calibrator arm. Patients are randomized to one of three doses of celivarone or placebo or to the amiodarone calibrator arm.
The efficacy of celivarone is based on data regarding appropriate ICD intervention obtained by regular ICD interrogation, performed as described below, as well as on data regarding death of the randomized patients, in particular sudden death, and on data regarding cardiovascular hospitalization occurrences.
The study includes a one week screening period, followed by a treatment period scheduled for a minimum duration of 6 months for the last patient recruited and going from the first day of treatment to the end of treatment visit to be done 10-15 days prior to the scheduled study end date. […]
Cardiovascular hospitalization is an hospitalization with a cardiovascular cause, as assessed by the investigator. […]

## CCCCc1oc2ccc(C(=O)OC(C)C)cc2c1C(=O)c1ccc(CCCN(CCCC)CCCC)cc1.O=C(O)/C=C/C(=O)O [celivarone, 2-butyl-3-[4-[3-(dibutylamino)propyl]benzoyl]-1-benzofuran-5-carboxylic acid isopropyl ester fumarate]
  prevention of cardiovascular hospitalization: effective
